According to patent US20240240224A1, “FLUORESCENT D-TYPE AMINO ACID METABOLISM MARKER-BASED METHOD FOR DETECTING ANTIBACTERIAL DRUG SENSITIVITY TEST” (priority 2020, published 2024):
In brackets after ≈: the same amount, converted by molar mass.

Columns and labels:
[1] = test system: bacteria contained in alveolar lavage fluid; experiment: FDAA metabolic labeling susceptibility test of alveolar lavage fluid (Cy5-DAA probe); assay type: cell-based; details: alveolar lavage fluid of patients with hospital acquired pneumonia, 2 hours
Procedure: (§1) With reference to the flow chart of the rapid detection method of antimicrobial susceptibility test based on FDAA metabolic markers shown in FIG. 3, FDAA is used for the detection of antimicrobial susceptibility test of alveolar lavage fluid. The specific experimental steps are as follows: • 1. Mix bronchoalveolar lavage fluid (BALF, 10 ml) of patients with hospital acquired pneumonia with cation regulated broth medium (CAMHB, 10 ml) of twice the concentration to prepare the bacterial fluid to be tested. • 2. Add 45 μl antibiotic solutions of different concentrations to the 96-well plate separately (see Table 1 for antibiotic concentration gradient settings). • 3. Add 50 μl of the bacterial solution prepared in step 1 to the 96-well plate and mix well. • 4. Add 5 μl of 10 mM Cy5-DAA probe (final concentration 0.15 mM, see FIG. 1 for its structure) into each well, mix well, and then cultivate in dark for 2 hours. • 5. Add 200 μl PBS solution for dilution, and then use flow cytometry to detect the fluorescence intensity of each sample.

P. aeruginosa Pa2 [2] = experiment: BMD susceptibility test; assay type: cell-based, Pseudomonas aeruginosa; details: unit assumed
K. pneumoniae Kp6 [3] = experiment: BMD susceptibility test; assay type: cell-based, Klebsiella pneumoniae; details: unit assumed
K. pneumoniae Kp6 [4] = experiment: FaAST (FDAA metabolic labeling); assay type: cell-based, Klebsiella pneumoniae; details: unit assumed
In short: (§2)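 Bacteria at OD600=0.05 in CAMHB mixed with antibiotic dilutions plus Cy5-DAA probe at 0.15 mM final, then incubated 2 h in the dark. Cell-wall labeling fluorescence measured by flow cytometry after PBS dilution.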

Ec ATCC 25922 [5] = experiment: BMD susceptibility test; assay type: cell-based, Escherichia coli; details: unit assumed
P. aeruginosa Pa3 [6] = experiment: BMD susceptibility test; assay type: cell-based, Pseudomonas aeruginosa; details: unit assumed
A. baumannii Ab16 [7] = experiment: FaAST (FDAA metabolic labeling); assay type: cell-based, Acinetobacter baumannii; details: unit assumed
Procedure: (§3) The specific experimental steps are as follows: • 1. Take the colony to be tested that has been cultured overnight on the plate and fully mix it in normal saline to make a uniform bacterial solution. Dilute it into CAMHB medium to make a bacterial solution with OD600=0.05. • 2. Add 45 μl antibiotic solutions to be tested of different concentrations to 96-well plates (see Table 3 for antibiotic concentration gradient settings). • 3. Add 50 μl of bacterial solution prepared in Step 1 to the 96-well plate and mix well. • 4.5 μl of 10 mM Cy5-DAA probe was added to each well (final concentration was 0.15 mM, and its structure was shown in FIG. 1). After mixing, the probe was incubated for 2 hours in the dark. • 5. After dilution with 200 μl PBS solution, the fluorescence intensity of each sample was detected by flow cytometry.

Pa ATCC 27853 [8] = experiment: BMD susceptibility test; assay type: cell-based, Pseudomonas aeruginosa; details: unit assumed
K. pneumoniae Kp9 = experiment: BMD susceptibility test; assay type: cell-based, Klebsiella pneumoniae; details: unit assumed
E. coli Ec13 [9] = experiment: FaAST (FDAA metabolic labeling); assay type: cell-based, Escherichia coli; details: unit assumed
In short: as §2

E.coli 1146 [10] = experiment: Vitek 2 drug sensitivity test; assay type: cell-based, Escherichia coli; on Sensibility: key: S: Drug sensitive; R: Drug resistance
A. baumannii Ab16 [11] = experiment: BMD susceptibility test; assay type: cell-based, Acinetobacter baumannii; details: unit assumed
Escherichia coli ECO922 [12] = experiment: VITEK drug sensitivity test; assay type: cell-based; details: unit assumed
E. coli Ec11 [13] = experiment: FaAST (FDAA metabolic labeling); assay type: cell-based, Escherichia coli; details: unit assumed
In short: (§4)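 Bacteria diluted to OD600=0.05 in CAMHB were exposed to an antibiotic concentration series with Cy5-DAA probe […] for 2 h in the dark. Per-sample fluorescence was read by flow cytometry after PBS dilution. MIC was taken from the antibiotic concentration–fluorescence curve.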

Ec ATCC 25922 [14] = experiment: FaAST (FDAA metabolic labeling); assay type: cell-based, Escherichia coli; details: unit assumed
In short: as §4

A. baumannii Ab19 [15] = experiment: FaAST (FDAA metabolic labeling); assay type: cell-based, Acinetobacter baumannii; details: unit assumed
Procedure: as §3, with “cytometry. The flow detection results are shown in the attached FIG. 4-5, showing the curve of antibiotic concentration gradient and fluorescence intensity, and the MIC (minimum inhibitory concentration) is obtained by referring to this curve.” for “cytometry.”
(§5) Antibiotic resistant strains are shown in bold in the table below.

Escherichia coli ECO15 [16] = experiment: FaAST with DAA-Cy5-2 probe; assay type: cell-based; details: unit assumed
Procedure: as §1
The specific steps are the same as in Example 5. […] The minimum inhibitory concentration of antibiotics was obtained according to the fluorescence signal intensity of flow detection, and the statistical results are shown in Table 7.

E. coli Ec13 [17] = experiment: BMD susceptibility test; assay type: cell-based, Escherichia coli; details: unit assumed
E.coli 1113 [18] = experiment: Vitek 2 drug sensitivity test; assay type: cell-based, Escherichia coli; further: key: S: Drug sensitive; R: Drug resistance
E. coli Ec11 [19] = experiment: BMD susceptibility test; assay type: cell-based, Escherichia coli; details: unit assumed
A. baumannii Ab19 [20] = experiment: BMD susceptibility test; assay type: cell-based, Acinetobacter baumannii; details: unit assumed
Escherichia coli ECO922 [21] = experiment: FaAST with DAA-Tetra probe; assay type: cell-based; details: unit assumed
Procedure: (§6) The specific experimental steps are as follows: • 1. The tested colonies cultured overnight on the plate were picked and mixed thoroughly in 2× Cation-Adjusted Mueller Hinton Broth medium (2×CAMHB) to make bacterial suspension with turbidity of OD600=0.1. • 2. […] Add 50 μL of the bacterial solution prepared in step 1 (the final concentration of the bacterial solution is OD600=0.05) to the 96-well plate, and add 5 μL of 3 mM DAA-Tetra probe (the final concentration is 0.15 mM), mix well, and incubate in the dark at 37° C. 120 rpm for 2 hours. • 4. After culture, dilute the mixed bacterial solution 10 times with PBS solution, and detect the fluorescence intensity of each sample with flow cytometry. The flow detection result is shown in FIG. 14-19, and the arrow is for the MIC value. The minimum inhibitory concentration of antibiotics was obtained according to the fluorescence signal intensity of flow detection, and the statistical results are shown in Table 6.

Escherichia coli ECO15 [22] = experiment: VITEK drug sensitivity test; assay type: cell-based; details: unit assumed
E.coli 1146 [23] = experiment: FDAA metabolic labeling susceptibility test (Cy5-DAA probe, flow cytometry); assay type: cell-based, Escherichia coli; details: Escherichia coli; E.coli 1146; Cy5-DAA probe, 2 hours; read-out: MIC, FDAA
Procedure: as §3, with “cytometry. The flow detection results are shown in the attached FIG. 4-5, showing the curve of antibiotic concentration gradient and fluorescence intensity, and the MIC (minimum inhibitory concentration) is obtained by referring to this curve.” for “cytometry.”

E.coli 1113 [24] = experiment: as above; assay type: cell-based, Escherichia coli; details: Escherichia coli; E.coli 1113; Cy5-DAA probe, 2 hours; read-out: MIC, FDAA
Procedure: as §3, with “cytometry. The flow detection results are shown in the attached FIG. 4-5, showing the curve of antibiotic concentration gradient and fluorescence intensity, and the MIC (minimum inhibitory concentration) is obtained by referring to this curve.” for “cytometry.”

[25] = test system: bacteria contained in alveolar lavage fluid; experiment: Vitek 2 drug sensitivity test of alveolar lavage fluid; assay type: cell-based; on Sensibility: key: S: Drug sensitive; R: Drug resistance
Pa ATCC 27853 [26] = experiment: FaAST (FDAA metabolic labeling); assay type: cell-based, Pseudomonas aeruginosa; details: unit assumed
Procedure: as §3, with “cytometry. The flow detection results are shown in the attached FIG. 4-5, showing the curve of antibiotic concentration gradient and fluorescence intensity, and the MIC (minimum inhibitory concentration) is obtained by referring to this curve.” for “cytometry.”
as §5

P. aeruginosa Pa2 [27] = experiment: FaAST (FDAA metabolic labeling); assay type: cell-based, Pseudomonas aeruginosa; details: unit assumed
Procedure: as §3, with “cytometry. The flow detection results are shown in the attached FIG. 4-5, showing the curve of antibiotic concentration gradient and fluorescence intensity, and the MIC (minimum inhibitory concentration) is obtained by referring to this curve.” for “cytometry.”
as §5

P. aeruginosa Pa3 [28] = experiment: FaAST (FDAA metabolic labeling); assay type: cell-based, Pseudomonas aeruginosa; details: unit assumed
Procedure: as §3, with “cytometry. The flow detection results are shown in the attached FIG. 4-5, showing the curve of antibiotic concentration gradient and fluorescence intensity, and the MIC (minimum inhibitory concentration) is obtained by referring to this curve.” for “cytometry.”
as §5

[29] = test system: Klebsiella pneumoniae KPN6; experiment: VITEK drug sensitivity test; assay type: cell-based; details: unit assumed
Pa ATCC 27853 [30] = details: cited from earlier work
Ec ATCC 25922 [31] = details: cited from earlier work
[32] = test system: Klebsiella pneumoniae KPN6; experiment: FaAST with DAA-Tetra probe; assay type: cell-based; details: unit assumed
Procedure: as §6

SMILES	BMD (MIC) (P. aeruginosa Pa2 [2]) [µg/mL]	BMD (MIC) (K. pneumoniae Kp6 [3]) [µg/mL]	FaAST (MIC) (K. pneumoniae Kp6 [4]) [µg/mL]	BMD (MIC) (Ec ATCC 25922 [5]) [µg/mL]	BMD (MIC) (P. aeruginosa Pa3 [6]) [µg/mL]	BMD (MIC) (Pa ATCC 27853 [8]) [µg/mL]	FaAST (MIC) (E. coli Ec13 [9]) [µg/mL]	FaAST (MIC) (E. coli Ec11 [13]) [µg/mL]	FaAST (MIC) (Ec ATCC 25922 [14]) [µg/mL]	FaAST (MIC) (A. baumannii Ab19 [15]) [µg/mL]	BMD (MIC) (E. coli Ec13 [17]) [µg/mL]	BMD (MIC) (E. coli Ec11 [19]) [µg/mL]	BMD (MIC) (A. baumannii Ab19 [20]) [µg/mL]	FaAST (MIC) (Pa ATCC 27853 [26]) [µg/mL]	FaAST (MIC) (P. aeruginosa Pa2 [27]) [µg/mL]	FaAST (MIC) (P. aeruginosa Pa3 [28]) [µg/mL]	other results
C[C@@H](O)[C@H]1C(=O)N2C(C(=O)O)=C(SCCN=CN)C[C@H]12 [Imipenem, imipenem]	1	≤ 0.25	1	≤ 0.25	32	2	128	1	1	1	16	≤ 0.25	≤ 0.25	1	1	32	MIC, FDAA [1]: ≥256 µg/mL; FaAST (MIC) (A. baumannii Ab16 [7]): 64 µg/mL; BMD (MIC) (K. pneumoniae Kp9): 128 µg/mL; Sensibility (E.coli 1146 [10]): S; MIC (E.coli 1146 [10]; Escherichia coli): ≤ 1 µg/mL; BMD (MIC) (A. baumannii Ab16 [11]): 32 µg/mL; MIC, VITEK (Escherichia coli ECO922 [12]): 1 µg/mL (≈ 3.34 µM); MIC, FaAST (Escherichia coli ECO15 [16]): 128 µg/mL (≈ 428 µM); Sensibility (E.coli 1113 [18]): R; MIC, FaAST (Escherichia coli ECO922 [21]): 1 µg/mL (≈ 3.34 µM); MIC, VITEK (Escherichia coli ECO15 [22]): 128 µg/mL (≈ 428 µM); MIC (E.coli 1146 [23]): 0.5 µg/mL (≈ 1.67 µM); MIC (E.coli 1113 [24]): ≥ 128 µg/mL; MIC [25]: ≥ 16 µg/mL; Sensibility [25]: R
NCC[C@H](O)C(=O)N[C@@H]1C[C@H](N)[C@@H](O[C@H]2O[C@H](CN)[C@@H](O)[C@H](O)[C@H]2O)[C@H](O)[C@H]1O[C@H]1O[C@H](CO)[C@@H](O)[C@H](N)[C@H]1O [Amikacin]	2	0.5	0.5	1	4	2	1	8	2	2	2	4	2	4	0.5	8	MIC, VITEK [29]: 0.5 µg/mL (≈ 0.854 µM); CLSI QC range (Pa ATCC 27853 [30]): 1-4; CLSI QC range (Ec ATCC 25922 [31]): 0.5-4^; MIC, FaAST [32]: 0.5 µg/mL (≈ 0.854 µM)
